In the NIST ThermoML archive (doi:10.1016/j.fluid.2007.04.030):

Experiment: xn = mol fraction of the nth substance listed
Settings: 101 kPa, Liquid

COc1cc2c(cc1O)CC1c3c(cc(O)c(OC)c3-2)CCN1C (stereo not drawn) [boldine] + CCCCCO
mass density [kg/m3]
Settings	x1 = 0.00272	x1 = 0.00547	x1 = 0.00826
283.15 K	825.74	829.04	832.39
288.15 K	822.11	825.4	828.75
293.15 K	818.44	821.73	825.07
298.15 K	814.76	818.04	821.37
303.15 K	811.05	814.33	817.65
308.15 K	807.31	810.58	813.91
313.15 K	803.53	806.8	810.12
318.15 K	799.72	802.99	806.31
323.15 K	795.87	799.13	802.45
328.15 K	791.97	795.23	798.54
333.15 K	788.02	791.28	794.59

CCCCCCO [hexan-1-ol] + COc1cc2c(cc1O)CC1c3c(cc(O)c(OC)c3-2)CCN1C
x2 = 0
Settings	mass density [kg/m3]
283.15 K	827.82
288.15 K	824.25
293.15 K	820.65
298.15 K	817.03
303.15 K	813.39
308.15 K	809.71
313.15 K	806
318.15 K	802.27
323.15 K	798.49
328.15 K	794.67
333.15 K	790.8

CCCCO [butan-1-ol] + COc1cc2c(cc1O)CC1c3c(cc(O)c(OC)c3-2)CCN1C
x2 = 0
Settings	mass density [kg/m3]
283.15 K	817.15
288.15 K	813.38
293.15 K	809.59
298.15 K	805.77
303.15 K	801.92
308.15 K	798.05
313.15 K	794.14
318.15 K	790.19
323.15 K	786.19
328.15 K	782.14
333.15 K	778.03

CO [methanol] + COc1cc2c(cc1O)CC1c3c(cc(O)c(OC)c3-2)CCN1C
x2 = 0
Settings	mass density [kg/m3]
283.15 K	801.08
288.15 K	796.41
293.15 K	791.71
298.15 K	787.01
303.15 K	782.29
308.15 K	777.55
313.15 K	772.78
318.15 K	767.97
323.15 K	763.12
328.15 K	758.23
333.15 K	753.29

COc1cc2c(cc1O)CC1c3c(cc(O)c(OC)c3-2)CCN1C (stereo not drawn) [boldine] + CCCCCCCCO
mass density [kg/m3]
Settings	x1 = 0.00398	x1 = 0.00806	x1 = 0.01216
283.15 K	835.34	838.57	842.06
288.15 K	831.91	835.14	838.62
293.15 K	828.46	831.68	835.16
298.15 K	825	828.21	831.68
303.15 K	821.52	824.72	828.18
308.15 K	818.01	821.21	824.66
313.15 K	814.49	817.68	821.12
318.15 K	810.93	814.12	817.55
323.15 K	807.34	810.52	813.96
328.15 K	803.73	806.9	810.33
333.15 K	800.08	803.24	806.66

COc1cc2c(cc1O)CC1c3c(cc(O)c(OC)c3-2)CCN1C (stereo not drawn) [boldine] + CCCCO
mass density [kg/m3]
Settings	x1 = 0.00228	x1 = 0.00461	x1 = 0.00696	x1 = 0.00936	x1 = 0.01178	x1 = 0.01427	x1 = 0.01678
283.15 K	820.49	823.85	827.2	830.57	833.94	837.36	840.79
288.15 K	816.73	820.08	823.43	826.79	830.16	833.57	837
293.15 K	812.93	816.28	819.62	822.98	826.35	829.75	833.18
298.15 K	809.11	812.45	815.8	819.15	822.52	825.92	829.34
303.15 K	805.26	808.6	811.94	815.29	818.66	822.06	825.48
308.15 K	801.39	804.72	808.06	811.4	814.77	818.16	821.58
313.15 K	797.47	800.81	804.14	807.48	810.84	814.23	817.64
318.15 K	793.52	796.85	800.17	803.52	806.87	810.25	813.67
323.15 K	789.52	792.84	796.17	799.51	802.86	806.23	809.66
328.15 K	785.47	788.79	792.11	795.45	798.79	802.17	805.59
333.15 K	781.35	784.67	787.99	791.32	794.67	798.05	801.46

COc1cc2c(cc1O)CC1c3c(cc(O)c(OC)c3-2)CCN1C (stereo not drawn) [boldine] + CCCO
mass density [kg/m3]
Settings	x1 = 0.00185	x1 = 0.00374	x1 = 0.00565	x1 = 0.0076	x1 = 0.00957	x1 = 0.01158	x1 = 0.01361
283.15 K	814.99	818.36	821.77	825.23	828.61	832.08	835.59
288.15 K	811.04	814.41	817.81	821.26	824.65	828.12	831.61
293.15 K	807.05	810.42	813.82	817.26	820.65	824.12	827.61
298.15 K	803.04	806.4	809.8	813.24	816.64	820.1	823.59
303.15 K	799	802.35	805.75	809.2	812.59	816.05	819.54
308.15 K	794.92	798.27	801.67	805.12	808.5	811.96	815.45
313.15 K	790.81	794.14	797.55	800.98	804.37	807.83	811.31
318.15 K	786.65	789.98	793.39	796.82	800.21	803.65	807.13
323.15 K	782.43	785.77	789.17	792.6	795.99	799.42	802.91
328.15 K	778.16	781.5	784.89	788.33	791.71	795.16	798.63
333.15 K	773.81	777.16	780.54	783.99	787.37	790.82	794.3

CCCO [propan-1-ol] + COc1cc2c(cc1O)CC1c3c(cc(O)c(OC)c3-2)CCN1C
x2 = 0
Settings	mass density [kg/m3]
283.15 K	811.57
288.15 K	807.62
293.15 K	803.63
298.15 K	799.62
303.15 K	795.58
308.15 K	791.49
313.15 K	787.37
318.15 K	783.22
323.15 K	779.01
328.15 K	774.73
333.15 K	770.39

CCO [ethanol] + COc1cc2c(cc1O)CC1c3c(cc(O)c(OC)c3-2)CCN1C
x2 = 0
Settings	mass density [kg/m3]
283.15 K	797.96
288.15 K	793.71
293.15 K	789.44
298.15 K	785.15
303.15 K	780.83
308.15 K	776.48
313.15 K	772.09
318.15 K	767.65
323.15 K	763.17
328.15 K	758.63
333.15 K	754.01

CC(C)O [propan-2-ol] + COc1cc2c(cc1O)CC1c3c(cc(O)c(OC)c3-2)CCN1C
x2 = 0
Settings	mass density [kg/m3]
283.15 K	793.31
288.15 K	789.22
293.15 K	785.08
298.15 K	780.87
303.15 K	776.6
308.15 K	772.25
313.15 K	767.81
318.15 K	763.28
323.15 K	758.64
328.15 K	753.88
333.15 K	749.01

CCCCCO [pentan-1-ol] + COc1cc2c(cc1O)CC1c3c(cc(O)c(OC)c3-2)CCN1C
x2 = 0
Settings	mass density [kg/m3]
283.15 K	822.42
288.15 K	818.79
293.15 K	815.13
298.15 K	811.45
303.15 K	807.74
308.15 K	804.01
313.15 K	800.24
318.15 K	796.43
323.15 K	792.57
328.15 K	788.67
333.15 K	784.72

CCCCCCCCO [octan-1-ol] + COc1cc2c(cc1O)CC1c3c(cc(O)c(OC)c3-2)CCN1C
x2 = 0
Settings	mass density [kg/m3]
283.15 K	832.13
288.15 K	828.71
293.15 K	825.27
298.15 K	821.81
303.15 K	818.33
308.15 K	814.84
313.15 K	811.31
318.15 K	807.76
323.15 K	804.19
328.15 K	800.58
333.15 K	796.93
